According to patent publication US8765779B2, “Tricyclic derivatives and their pharmaceutical use and compositions” (Cephalon, Inc., priority 2009, dated 2014):
pKi: −log10 of the molar value.

Target: T1, human 5-HT6 receptor (Homo sapiens, UniProt P50406)
T1 construct: host or cells: CHO-K1 cells, stably transfected; membranes prepared in house
Assay: Human 5-HT6 Receptor Binding Assay ([3H]LSD displacement, scintillation beads)
Details: membranes of CHO-K1 cells with recombinant human 5-HT6, 4 nM [3H]LSD; Table 1, class symbols; read-out: h5-HT6 (Ki)
Experimental: Human 5-HT6 Receptor Binding Assay
Membranes were prepared from CHO—K1 cells stably transfected with the human 5-HT6 receptor (Euroscreen; ES-316-C). The cells were grown in Gibco Advanced DMEM-F12 (Cat#12634010) containing 2% dialyzed FBS (Hyclone Cat#SH30079.03). The cells were harvested in phosphate buffered saline (PBS) containing 0.1 mM EDTA and pelleted by centrifugation (1000×g), the supernatant was discarded and the pellets were stored at −80° C. prior to membrane preparation. Membranes were prepared as previously described (J Bio Chem. 1992, 267 (14) 9844-51). Briefly, frozen cell pellet was resuspended in a lysis buffer containing 5 mM Tris-HCl (pH 7.5), 5 mM EDTA and 1 complete EDTA-free protease inhibitor tablet (Roche Applied Science, Indianapolis, Ind.) per 50 mL buffer, and homogenized with a tissue homogenizer. The cell lysate was then centrifuged at 40,000×g for 30 min at 4° C. to collect the membranes. The membrane pellets were washed in membrane buffer (50 mM Tris-HCl (pH 7.5), 0.6 mM EDTA, 5 mM MgCl2, 1 complete EDTA-free protease inhibitor tablet per 50 mL buffer) using a tissue homogenizer. The membranes were centrifuged at 40,000×g for 30 min at 4° C. and the pellets were resuspended in membrane buffer containing 250 mM sucrose, and protein concentration was determined using the Coomassie Plus kit (Pierce Biotechnology, Rockford, Ill.).
Membranes prepared from cells expressing recombinant human 5-HT6 receptor (h5-HT6) were resuspended in assay buffer containing 50 mM Tris HCl, (pH7.4), 4 mM CaCl2, 10 μg/mL saponin, and 0.1% (w/v) ascorbic acid. Membranes were preincubated using 1.75 μg membrane protein and 0.25 mg FlashBlue scintillation beads (PerkinElmer catalogue #FB001) per well at 4° for 30 min. […] Test compounds or assay controls for total and non-specific binding were diluted in DMSO as 100× solutions and serially diluted by half log concentrations on a Perkin Elmer JANUS Automated Workstation. Serotonin (10 μM final concentration) was used to determine non-specific binding in the assay. Plates were read using the Microbeta Trilux 1450 LSC and luminescence counter. Data were analyzed by nonlinear […] using the dose-response equation (variable slope) to calculate IC50 in XLfit4 (ID Business Solutions Inc.): y=(Bottom+((Top−Bottom)/(1+((IC50/x)^Hill slope))))
Ki value was then calculated according to the Cheng-Prusoff method using the equation below (Cheng and Prusoff, 1973): Ki,app=IC50/(1+[radioligand]/Kd))

T1 sequence (P50406 whole entry): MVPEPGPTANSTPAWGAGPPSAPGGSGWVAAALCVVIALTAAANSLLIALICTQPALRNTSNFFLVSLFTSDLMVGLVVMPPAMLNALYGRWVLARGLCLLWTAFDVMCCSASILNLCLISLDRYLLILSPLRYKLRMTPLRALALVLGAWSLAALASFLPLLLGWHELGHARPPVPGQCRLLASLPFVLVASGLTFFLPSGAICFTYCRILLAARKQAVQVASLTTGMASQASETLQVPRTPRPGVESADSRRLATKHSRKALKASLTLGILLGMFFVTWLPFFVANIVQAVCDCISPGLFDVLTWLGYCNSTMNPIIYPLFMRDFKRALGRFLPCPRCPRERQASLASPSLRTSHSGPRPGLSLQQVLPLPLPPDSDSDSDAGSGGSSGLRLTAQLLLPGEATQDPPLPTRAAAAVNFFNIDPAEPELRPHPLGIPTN

Row | pKi | Structure (SMILES)
1 | > 6.30 | O=S(=O)(c1ccc(Cl)c(Cl)c1)c1ccc2c(c1)C1CCNCC1O2 (stereo not shown) [Example 172]
2 | > 6.30 | O=S(=O)(Nc1ccc2c(c1)C1CCNCC1O2)c1cc2ccccc2s1 (stereo not shown) [Example 834]
3 | > 6.30 | Cc1c(S(=O)(=O)Oc2ccc3c(c2)OC2CNCCC32)sc2ccc(Cl)cc12 (stereo not shown) [Example 796]
4 | > 6.30 | C#CCOc1cccc(S(=O)(=O)c2ccc3c(c2)OC2CNCCC32)c1 (stereo not shown) [Example 549]
5 | < 6.00 | O=S(=O)(NC1CCCCC1)c1ccc2c(c1)C1CCNCC1O2 (stereo not shown) [Example 849, N-cyclohexy1-1,2,3,4,4a,9a-hexahydro[1]benzofuro[2,3-c]pyridine-6-sulfonamide]
6 | > 6.30 | O=S(=O)(c1ccc2c(c1)OC1CNCCC21)c1cc(F)ccc1F (stereo not shown) [Example 143]
7 | > 6.30 | COCC1(COC)NCCc2c1oc1cc(S(=O)(=O)c3cccc(F)c3)ccc21 [Example 39, 7-[(3-fluorophenyl)sulfonyl]-1,1-bis(methoxymethyl)-1,2,3,4-tetrahydro[1]benzofuro[2,3-c]pyridine]
8 | < 6.00 | CC(=O)N1CCC2c3ccc(S(=O)(=O)c4ccccc4)cc3OC2C1 (stereo not shown) [Example 613, 1-[7-(Phenylsulfonyl)-3,4,4a,9a-tetrahydro[1]benzofuro[2,3-c]pyridin-2(1H)-yl]ethanone]
9 | < 6.00 | N#Cc1ccc(S(=O)(=O)c2ccc3oc4c(c3c2)CCNC4)cc1 [Example 271]
10 | > 6.30 | CC(C)Oc1cccc(S(=O)(=O)c2ccc3c4c(oc3c2)C2(CCOC2)NCC4)c1 (single isomer, unassigned) [Example 31, 7-{[3-(propan-2-yloxy)phenyl]sulfonyl}-3,4,4′,5′-tetrahydro-2H-spiro[1-benzofuro[2,3-c]pyridine-1,3′-furan]]
11 | < 6.00 | O=[N+]([O-])c1ccc(S(=O)(=O)c2ccc3c(c2)OC2CNCCC32)cc1 (stereo not shown) [Example 124]
12 | > 6.30 | O=S(=O)(c1cccc(OCCn2cccc2)c1)c1ccc2c(c1)OC1CNCCC21 (stereo not shown) [Example 573]
13 | < 6.00 | O=S(=O)(Cc1cccc(Cl)c1)Oc1ccc2c(c1)C1CCNCC1O2 (stereo not shown) [Example 752]
14 | < 6.00 | O=S(=O)(Nc1ccccc1Cl)c1ccc2c(c1)C1CCNCC1O2 (stereo not shown) [Example 840]
15 | > 6.30 | Cc1c(OCC2CCOCC2)cccc1S(=O)(=O)c1ccc2c(c1)OC1CNCCC21 (stereo not shown) [Example 582]
16 | > 6.30 | O=S(=O)(c1ccc2ccccc2c1)c1ccc2oc3c(c2c1)CCNC3 [Example 251]
17 | > 6.30 | O=S(=O)(c1ccc2oc3c(c2c1)CCNC3)c1c(F)c(F)cc(F)c1F [Example 274]
18 | 6.00 to 6.30 | CN1CCC2c3ccc(OS(=O)(=O)c4ccc(Cl)cc4)cc3OC2C1 (stereo not shown) [Example 799]
19 | > 6.30 | O=S(=O)(c1ccc2c(c1)C1CCNCC1O2)c1cccc2ccccc12 (stereo not shown) [Example 170]
20 | > 6.30 | O=S(=O)(c1ccc2c(c1)OC1CNCCC21)c1ccccc1OCC(F)(F)F (stereo not shown) [Example 408]
21 | > 6.30 | CC(=O)N1CCc2c(oc3cc(S(=O)(=O)c4cccc(Cl)c4)ccc23)C1 [Example 615, 1-{7-[(3-Chlorophenyl)sulfonyl]-3,4-dihydro[1]benzofuro[2,3-c]pyridin-2(1H)-yl}ethanone]
22 | > 6.30 | COCC1(C)NCCc2c1oc1cc(S(=O)(=O)c3cccc(F)c3)ccc21 (stereo not shown) [Example 634]
23 | 6.00 to 6.30 | O=S(=O)(c1cccc(F)c1)c1ccc2c(c1)C1CCNCC1O2 (stereo not shown) [Example 168]
24 | < 6.00 | O=S(=O)(Nc1ccccc1)c1ccc2c(c1)C1CCNCC1O2 (stereo not shown) [Example 848]

Row | Structure (SMILES) | pKi
25 | CC12CCNCC1Oc1ccc(OS(=O)(=O)c3ccccc3Cl)cc12 (stereo not shown) [Example 763] | < 6.00
26 | Ic1ccc2c3c([nH]c2c1)C1(CCCOC1)NCC3 (stereo not drawn) [Example 547, 7-Iodo-2,3,4,5′,6′,9-hexahydro-4′H-spiro[beta-carboline-1,3′-pyran]trifluoroacetate] | > 6.30
27 | O=S(=O)(c1cncc(F)c1)c1ccc2c(c1)OC1CNCCC21 (stereo not shown) [Example 397] | < 6.00
28 | CN(C)C(=O)c1cccc(S(=O)(=O)c2ccc3c(c2)OC2CNCCC32C)c1 (stereo not shown) [Example 425] | < 6.00
